# In patent US10052320B2, “Substituted quinoxalines as FGFR kinase inhibitors” (ASTEX THERAPEUTICS LIMITED, priority 2011, dated 2018):
# Several values for one entry are separate records, joined by “and”; a condition that tells them apart may be missing. Equal entries are not always repeated.
# Key:
# [1] = target: Ba/F3-KDR-transfected cells (Homo sapiens, UniProt P35968); experiment: Ba/F3-KDR (minus IL3) cellular proliferation assay, Alamar Blue; type: cell-based; settings: minus IL3
# Procedure, shortened: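 Fluorescence (ex 540, em 590 nm) from resazurin reduction, read after 4 h with Alamar Blue, reports viability of Ba/F3-KDR cells after 24 h of compound treatment at 37 °C. Counterscreen wells also contained 10 ng/ml murine IL3.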
# [2] = target: FGFR3 (h) (Homo sapiens, UniProt P22607); experiment: FGFR3 (enzymatic assay), TR-FRET; type: biochemical; settings: read-out: FGFR 3 pIC50 (converted)
# Procedure: In a final reaction volume of 30 μL, FGFR3 (h) (40 ng/ml) was incubated with 50 mM HEPES pH 7.5, 6 mM MnCl2, 1 mM DTT, 0.1 mM Na3VO4, 0.01% Triton-X-100, 500 nM Btn-Flt3 and 25 μM ATP in the presence of compound (1% DMSO final). […] Time-Resolved Fluorescence Resonance Energy Transfer (TR-FRET) signal (ex340 nm. Em 620 nm, em 655 nm) was measured afterwards and results are expressed in RFU (Relative Fluorescence Units).
# [3] = target: T1, Ba/F3-Flt3-transfected cells (Homo sapiens, UniProt P36888, cells depend on it, form not given); experiment: Ba/F3-Flt3 (minus IL3) cellular proliferation assay, Alamar Blue; type: cell-based; settings: minus IL3
# T1 sequence (P36888 1-993): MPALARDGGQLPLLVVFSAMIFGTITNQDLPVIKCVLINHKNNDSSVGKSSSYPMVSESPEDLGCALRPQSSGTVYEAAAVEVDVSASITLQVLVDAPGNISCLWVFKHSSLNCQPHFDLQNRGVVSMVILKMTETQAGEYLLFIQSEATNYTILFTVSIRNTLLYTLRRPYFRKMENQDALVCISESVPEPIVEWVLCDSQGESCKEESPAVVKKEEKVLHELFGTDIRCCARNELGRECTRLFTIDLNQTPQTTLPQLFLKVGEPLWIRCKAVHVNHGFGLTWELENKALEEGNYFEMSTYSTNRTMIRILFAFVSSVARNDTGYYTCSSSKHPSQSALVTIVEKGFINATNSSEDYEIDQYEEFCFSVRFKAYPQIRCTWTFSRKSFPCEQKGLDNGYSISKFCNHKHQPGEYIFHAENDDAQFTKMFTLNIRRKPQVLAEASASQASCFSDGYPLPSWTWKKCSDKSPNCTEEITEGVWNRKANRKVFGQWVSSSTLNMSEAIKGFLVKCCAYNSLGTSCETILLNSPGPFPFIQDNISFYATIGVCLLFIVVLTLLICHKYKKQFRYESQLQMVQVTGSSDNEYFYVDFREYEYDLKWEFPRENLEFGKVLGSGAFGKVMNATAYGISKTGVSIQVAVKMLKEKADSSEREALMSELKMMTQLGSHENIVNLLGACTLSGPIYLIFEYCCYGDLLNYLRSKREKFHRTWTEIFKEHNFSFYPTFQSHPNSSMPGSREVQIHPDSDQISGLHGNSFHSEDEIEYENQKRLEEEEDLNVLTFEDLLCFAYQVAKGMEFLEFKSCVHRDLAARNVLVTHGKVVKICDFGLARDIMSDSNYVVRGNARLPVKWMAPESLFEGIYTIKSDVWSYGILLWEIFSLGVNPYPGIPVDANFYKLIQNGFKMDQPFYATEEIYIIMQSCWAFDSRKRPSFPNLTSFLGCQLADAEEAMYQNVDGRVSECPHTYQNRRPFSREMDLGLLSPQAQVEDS
# FGFR3 (h), sequence (P22607 23-806): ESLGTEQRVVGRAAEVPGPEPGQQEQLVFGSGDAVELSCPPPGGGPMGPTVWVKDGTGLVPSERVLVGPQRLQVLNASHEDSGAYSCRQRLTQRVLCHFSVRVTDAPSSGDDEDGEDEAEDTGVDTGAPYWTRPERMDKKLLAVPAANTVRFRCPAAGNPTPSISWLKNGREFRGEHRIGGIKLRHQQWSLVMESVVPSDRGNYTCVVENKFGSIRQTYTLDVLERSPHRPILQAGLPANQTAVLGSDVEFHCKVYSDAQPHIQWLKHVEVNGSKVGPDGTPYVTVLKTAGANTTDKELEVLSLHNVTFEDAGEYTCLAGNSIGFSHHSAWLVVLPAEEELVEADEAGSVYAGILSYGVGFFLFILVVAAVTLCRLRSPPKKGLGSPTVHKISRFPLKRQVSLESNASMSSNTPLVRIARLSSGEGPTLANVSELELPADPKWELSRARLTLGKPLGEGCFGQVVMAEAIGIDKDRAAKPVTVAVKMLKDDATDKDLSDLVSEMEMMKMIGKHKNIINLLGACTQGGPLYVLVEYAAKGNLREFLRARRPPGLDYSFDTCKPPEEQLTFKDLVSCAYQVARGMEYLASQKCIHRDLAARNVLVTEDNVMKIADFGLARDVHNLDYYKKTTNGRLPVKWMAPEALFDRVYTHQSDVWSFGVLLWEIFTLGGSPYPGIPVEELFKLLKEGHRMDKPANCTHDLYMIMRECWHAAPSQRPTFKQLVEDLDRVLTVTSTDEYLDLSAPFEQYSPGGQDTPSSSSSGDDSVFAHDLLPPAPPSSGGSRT
# Ba/F3-KDR-transfected cells, sequence (P35968 whole entry, change not shown): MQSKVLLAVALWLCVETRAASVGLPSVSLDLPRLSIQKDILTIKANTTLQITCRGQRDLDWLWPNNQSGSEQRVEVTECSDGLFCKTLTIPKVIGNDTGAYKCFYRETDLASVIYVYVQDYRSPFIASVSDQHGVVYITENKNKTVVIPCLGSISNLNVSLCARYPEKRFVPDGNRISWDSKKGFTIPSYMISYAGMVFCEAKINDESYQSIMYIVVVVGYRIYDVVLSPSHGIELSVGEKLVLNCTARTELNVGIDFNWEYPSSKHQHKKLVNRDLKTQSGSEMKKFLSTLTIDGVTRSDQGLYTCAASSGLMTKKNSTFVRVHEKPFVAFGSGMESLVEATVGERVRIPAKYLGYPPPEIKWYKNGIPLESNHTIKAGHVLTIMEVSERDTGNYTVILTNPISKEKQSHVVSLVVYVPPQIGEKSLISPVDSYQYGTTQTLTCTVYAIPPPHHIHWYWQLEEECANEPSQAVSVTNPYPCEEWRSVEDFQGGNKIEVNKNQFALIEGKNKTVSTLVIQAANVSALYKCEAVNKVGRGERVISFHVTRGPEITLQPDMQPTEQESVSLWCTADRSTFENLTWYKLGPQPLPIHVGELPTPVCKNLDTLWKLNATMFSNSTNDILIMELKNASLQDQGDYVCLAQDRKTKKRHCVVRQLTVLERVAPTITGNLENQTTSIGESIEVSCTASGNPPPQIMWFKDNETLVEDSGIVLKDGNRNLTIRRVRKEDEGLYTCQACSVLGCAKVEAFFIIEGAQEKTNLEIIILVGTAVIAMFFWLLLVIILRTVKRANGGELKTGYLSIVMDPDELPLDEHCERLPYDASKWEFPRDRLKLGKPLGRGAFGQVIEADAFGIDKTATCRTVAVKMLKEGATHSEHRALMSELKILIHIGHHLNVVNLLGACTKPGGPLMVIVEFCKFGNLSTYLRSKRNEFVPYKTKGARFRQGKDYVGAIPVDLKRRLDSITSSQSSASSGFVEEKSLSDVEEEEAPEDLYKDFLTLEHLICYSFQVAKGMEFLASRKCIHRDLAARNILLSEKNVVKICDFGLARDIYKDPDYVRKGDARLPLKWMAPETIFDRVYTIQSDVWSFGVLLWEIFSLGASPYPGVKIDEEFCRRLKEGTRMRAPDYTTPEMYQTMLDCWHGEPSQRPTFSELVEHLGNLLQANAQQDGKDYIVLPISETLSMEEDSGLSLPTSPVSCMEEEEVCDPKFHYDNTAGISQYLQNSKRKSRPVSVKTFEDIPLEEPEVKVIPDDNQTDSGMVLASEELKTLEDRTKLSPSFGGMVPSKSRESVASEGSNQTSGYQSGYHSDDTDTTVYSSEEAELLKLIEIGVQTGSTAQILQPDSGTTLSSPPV
melting point,BAF3-KDR (MIN IL3) 384 well pIC50 [1],IC50 [2] [nM],BAF3-FLT3 (MIN IL3) 384 well pIC50 [3],BAF3-KDR (MIN IL3) 96 well pIC50 [1],BAF3-FLT3 (MIN IL3) 96 well pIC50 [3],Compound
135 °C,5.18,6.92,<5,–,–,COCCN(c1cc(OC)cc(OC)c1)c1ccc2ncc(-c3ccn(C)c3)nc2c1 [Compound 6]
151 °C,5.12,4.68,<5,–,–,COc1cc(OC)cc(N(CCO)c2ccc3ncc(-c4cccnc4)nc3c2)c1 [Compound 9]
158 °C,5.1,4.47,<5,–,–,COc1cc(OC)cc(N(CCO)c2ccc3ncc(-c4ccncc4)nc3c2)c1 [Compound 11]
118 °C,5.53,4.47,5.14,–,–,COc1cc(OC)cc(N(CCNC(C)C)c2ccc3ncc(-c4ccncc4)nc3c2)c1 [Compound 12]
68 °C,5.35,9.55,5.02,–,–,CNC(=O)c1cc(-c2cnc3ccc(N(CCNC(C)C)c4cc(OC)cc(OC)c4)cc3n2)ccn1 [Compound 14]
144 °C,5.82,3.2,5.17,–,–,COc1cc(OC)cc(N(CCNC(C)C)c2ccc3ncc(-c4ccc(N)nc4)nc3c2)c1 [Compound 17]
60 °C,<5,214,<5,5.36,5.31,COc1cc(OC)cc(N(CC2CC2)c2ccc3ncc(C#Cc4ccncc4)nc3c2)c1 [Compound 23]
128 °C,<5,9.55,<5,<5,<5,COc1cc(OC)cc(N(CC2CC2)c2ccc3ncc(-c4cn(CCN5CCOCC5)nn4)nc3c2)c1 [Compound 24]
176 °C,<5,282,<5,–,–,CNC(=O)c1cc(-c2cnc3ccc(N(CCN4CCCC4=O)c4cc(OC)cc(OC)c4)cc3n2)ccn1 [Compound 25]
113 °C,5.07,26.9,<5,5.11,5.06,COc1cc(OC)cc(N(CC2CC2)c2ccc3ncc(-n4cnc(C)c4)nc3c2)c1 [Compound 30]
107 °C,<5,339,<5,–,<5,COc1cc(OC)cc(N(CC2CC2)c2ccc3ncc(-n4ccc(C)n4)nc3c2)c1 [Compound 31]
110 °C,<5,19.1,<5,–,–,COc1cc(OC)cc(N(CCCO)c2ccc3ncc(-c4ccnc(C(=O)NCCCN)c4)nc3c2)c1 [Compound 33]
178 °C and 177 °C,<5,49,<5,<5,<5,COc1cc(OC)cc(N(CC2CC2)c2ccc3ncc(-c4cn(CCO)nn4)nc3c2)c1 [Compound 40]
216 °C,<5,64.6,<5,–,<5,COc1cc(OC)cc(N(CC2CC2)c2ccc3ncc(-c4nnn[nH]4)nc3c2)c1 [Compound 41]
184 °C,5.39,3.31,5.44,–,–,COc1cc(OC)cc(N(CCCO)c2ccc3ncc(-c4ccc(N5CCNCC5)nc4)nc3c2)c1 [Compound 48]
168 °C,<5,447,<5,<5,<5,COc1cc(OC)cc(N(CC2CC2)c2ccc3ncc(-n4cncn4)nc3c2)c1 [Compound 50]
152 °C,<5,30.9,<5,<5,<5,COc1cc(OC)cc(N(CC2CC2)c2ccc3ncc(-c4cnco4)nc3c2)c1 [Compound 55]
175 °C,<5,955,<5,–,<5,COc1cc(OC)cc(N(CC2CC2)c2ccc3ncc(-c4nccn4C)nc3c2)c1 [Compound 60]
139 °C,<5,> 1000,<5,–,<5,COc1cc(OC)cc(N(CC2CC2)c2ccc3ncc(-n4nccc4C)nc3c2)c1 [Compound 62]
173 °C and 172 °C,<5,61.7,<5,<5,<5,COc1cc(OC)cc(N(CC2CC2)c2ccc3ncc(-c4cn[nH]n4)nc3c2)c1 [Compound 69]
214 °C,<5,~347,<5,–,–,CNC(=O)OCCN(c1cc(OC)cc(OC)c1)c1ccc2ncc(-c3ccc(NC(=O)OC(C)(C)C)nc3)nc2c1 [Compound 80]
182 °C,5.62,10,5.76,–,–,CNCCN(c1cc(OC)cc(OC)c1)c1ccc2ncc(-c3ccc(NC(=O)OC(C)(C)C)nc3)nc2c1 [Compound 81]
143 °C,<5,148,<5,<5,<5,COc1cc(OC)cc(N(CC2CC2)c2ccc3ncc(-c4nnn(C)n4)nc3c2)c1 [Compound 82]
168 °C,<5,> 1000,<5,<5,<5,COc1cc(OC)cc(N(CC2CC2)c2ccc3ncc(-c4nnnn4C)nc3c2)c1 [Compound 83]
112 °C,<5,550,<5,–,<5,COc1cc(OC)cc(N(CC2CC2)c2ccc3ncc(C(=O)NCCN4CCOCC4)nc3c2)c1 [Compound 96]
148 °C,<5,676,<5,–,<5,COc1cc(OC)cc(N(CC2CC2)c2ccc3ncc(-c4nccs4)nc3c2)c1 [Compound 97]
213 °C,<5,191,<5,–,<5,COc1cc(OC)cc(N(CC2CC2)c2ccc3ncc(Nc4nccs4)nc3c2)c1 [Compound 98]
140 °C,<5,> 1000,<5,–,<5,COc1cc(OC)cc(N(CC2CC2)c2ccc3ncc(C(=O)NCc4ccc(F)cc4)nc3c2)c1 [Compound 101]
